# In PubChem BioAssay (NCI):
#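 The compound was tested at five concentrations on cells cultured in 96-well plates, with a 48-hour exposure period. GI50 = concentration required for 50% inhibition of growth. TGI: total growth inhibition.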
# What was measured:
# Assay in all cases: growth of human tumour cells (NCI), 48 h
# [1] = test system: UACC-257 melanoma
# [2] = test system: SF-539 CNS
# [3] = test system: HOP-92 NSCLC
# [4] = test system: HS 578T breast
# [5] = test system: OVCAR-8 ovarian
# [6] = test system: EKVX NSCLC
# [7] = test system: CAKI-1 renal
# [8] = test system: M14 melanoma
# [9] = test system: HCT-116 colon
# [10] = test system: SNB-19 CNS
# [11] = test system: 786-0 renal
# [12] = test system: TK-10 renal
# [13] = test system: MOLT-4 leukemia
# [14] = test system: OVCAR-5 ovarian
# [15] = test system: SK-MEL-2 melanoma
# [16] = test system: HT29 colon
# [17] = test system: COLO 205 colon
# [18] = test system: MDA-MB-468 breast
# [19] = test system: HCT-15 colon
# [20] = test system: SN12C renal
# [21] = test system: RXF 393 renal
# [22] = test system: T-47D breast
# [23] = test system: NCI-H460 lung
# [24] = test system: RPMI-8226 leukemia
# [25] = test system: U251 CNS
# [26] = test system: KM12 colon
# [27] = test system: A498 renal
# [28] = test system: K-562 leukemia
# [29] = test system: MDA-MB-435
# [30] = test system: HL-60(TB) leukemia
# [31] = test system: HCC-2998 colon
# [32] = test system: MALME-3M melanoma
# [33] = test system: OVCAR-4 ovarian
# [34] = test system: SF-295 CNS
# [35] = test system: HOP-62 NSCLC
# [36] = test system: SR leukemia
# [37] = test system: LOX IMVI melanoma
# [38] = test system: DU-145 prostate
# [39] = test system: PC-3 prostate
# [40] = test system: MDA-MB-231 breast
# [41] = test system: SK-MEL-28 melanoma
# [42] = test system: NCI-H23 lung
# [43] = test system: SK-MEL-5 melanoma
# [44] = test system: SW-620 colon
# [45] = test system: SF-268 CNS
# [46] = test system: OVCAR-3 ovarian
# [47] = test system: SNB-75 CNS
# [48] = test system: A549 NSCLC
# [49] = test system: BT-549 breast
# [50] = test system: ACHN renal
# [51] = test system: MCF7 breast
# [52] = test system: NCI-H522 lung
# [53] = test system: SK-OV-3 ovarian
# [54] = test system: NCI-H226 lung
# [55] = test system: UACC-62 melanoma
compound,measurement,setting,value
COc1cc(C2CC(c3ccc(Cl)cc3)=Nc3c(N)nc(N)nc3N2)ccc1Oc1nc(Nc2ccc(F)cc2)nc(N(C)C)n1 (stereo not given),GI50,[1],> 100 µM
same,TGI,[1],> 100 µM
same,GI50,[2],> 100 µM
same,TGI,[2],> 100 µM
same,GI50,[3],3 µM
same,TGI,[3],> 100 µM
same,GI50,[4],84.8 µM
same,TGI,[4],> 100 µM
same,GI50,[5],> 100 µM
same,TGI,[5],> 100 µM
same,GI50,[6],> 100 µM
same,TGI,[6],> 100 µM
same,GI50,[7],3.38 µM
same,TGI,[7],> 100 µM
same,GI50,[8],> 100 µM
same,TGI,[8],> 100 µM
same,GI50,[9],12.5 µM
same,TGI,[9],> 100 µM
same,GI50,[10],> 100 µM
same,TGI,[10],> 100 µM
same,GI50,[11],> 100 µM
same,TGI,[11],> 100 µM
same,GI50,[12],> 100 µM
same,TGI,[12],> 100 µM
same,GI50,[13],8.54 µM
same,TGI,[13],> 100 µM
same,GI50,[14],> 100 µM
same,TGI,[14],> 100 µM
same,GI50,[15],> 100 µM
same,TGI,[15],> 100 µM
same,GI50,[16],29.4 µM
same,TGI,[16],> 100 µM
same,GI50,[17],> 100 µM
same,TGI,[17],> 100 µM
same,GI50,[18],17.8 µM
same,TGI,[18],> 100 µM
same,GI50,[19],76.6 µM
same,TGI,[19],> 100 µM
same,GI50,[20],> 100 µM
same,TGI,[20],> 100 µM
same,GI50,[21],2.46 µM
same,TGI,[21],> 100 µM
same,GI50,[22],> 100 µM
same,TGI,[22],> 100 µM
same,GI50,[23],42.3 µM
same,TGI,[23],> 100 µM
same,GI50,[24],26.4 µM
same,TGI,[24],> 100 µM
same,GI50,[25],> 100 µM
same,TGI,[25],> 100 µM
same,GI50,[26],40.1 µM
same,TGI,[26],> 100 µM
same,GI50,[27],> 100 µM
same,TGI,[27],> 100 µM
same,GI50,[28],4.5 µM
same,TGI,[28],> 100 µM
same,GI50,[29],> 100 µM
same,TGI,[29],> 100 µM
same,GI50,[30],44.7 µM
same,TGI,[30],> 100 µM
same,GI50,[31],45.3 µM
same,TGI,[31],> 100 µM
same,GI50,[32],> 100 µM
same,TGI,[32],> 100 µM
same,GI50,[33],18.9 µM
same,TGI,[33],> 100 µM
same,GI50,[34],> 100 µM
same,TGI,[34],> 100 µM
same,GI50,[35],> 100 µM
same,TGI,[35],> 100 µM
same,GI50,[36],3.41 µM
same,TGI,[36],> 100 µM
same,GI50,[37],47.8 µM
same,TGI,[37],> 100 µM
same,GI50,[38],> 100 µM
same,TGI,[38],> 100 µM
same,GI50,[39],6.16 µM
same,TGI,[39],> 100 µM
same,GI50,[40],6.73 µM
same,TGI,[40],> 100 µM
same,GI50,[41],> 100 µM
same,TGI,[41],> 100 µM
same,GI50,[42],> 100 µM
same,TGI,[42],> 100 µM
same,GI50,[43],17.2 µM
same,TGI,[43],52 µM
same,GI50,[44],> 100 µM
same,TGI,[44],> 100 µM
same,GI50,[45],> 100 µM
same,TGI,[45],> 100 µM
same,GI50,[46],> 100 µM
same,TGI,[46],> 100 µM
same,GI50,[47],3.24 µM
same,TGI,[47],> 100 µM
same,GI50,[48],> 100 µM
same,TGI,[48],> 100 µM
same,GI50,[49],35.5 µM
same,TGI,[49],> 100 µM
same,GI50,[50],> 100 µM
same,TGI,[50],> 100 µM
same,GI50,[51],9.91 µM
same,TGI,[51],> 100 µM
same,GI50,[52],> 100 µM
same,TGI,[52],> 100 µM
same,GI50,[53],> 100 µM
same,TGI,[53],> 100 µM
same,GI50,[54],> 100 µM
same,TGI,[54],> 100 µM
same,GI50,[55],> 100 µM
same,TGI,[55],> 100 µM
